Reference: patent US5840684A, “Glycopeptide antibiotic derivatives” (Eli Lilly and Company, priority 1995, dated 1998)
Converted amounts (≈) assume the structure as drawn.

What was measured:
[1] = test system: Staphylococcus aureus 489; assay: broth micro-dilution MIC; assay type: cell-based
Experimental: (§1) The MIC's were determined using a standard broth micro-dilution assay.

[2] = test system: Staphylococcus aureus 491; assay: broth micro-dilution MIC; assay type: cell-based
Experimental: as §1

[3] = test system: Streptococcus pyogenes C203; assay: broth micro-dilution MIC; assay type: cell-based
Experimental: as §1

[4] = test system: Entercoccus faecium 180-1; assay: broth micro-dilution MIC; assay type: cell-based
Experimental: as §1

[5] = test system: Staphylococcus aureus 446; assay: broth micro-dilution MIC; assay type: cell-based
Experimental: as §1

[6] = test system: Staphylococcus aureus X400; assay: broth micro-dilution MIC; assay type: cell-based
Experimental: as §1

Entercoccus faecium 276 = assay: broth micro-dilution MIC; assay type: cell-based
Experimental: as §1

[7] = test system: Staphylococcus aureus X778; assay: broth micro-dilution MIC; assay type: cell-based
Experimental: as §1

[8] = test system: Staphylococcus aureus SA1199A; assay: broth micro-dilution MIC; assay type: cell-based
Experimental: as §1

[9] = test system: Staphylococcus aureus 447; assay: broth micro-dilution MIC; assay type: cell-based
Experimental: as §1

[10] = test system: Staphylococcus aureus SA1199; assay: broth micro-dilution MIC; assay type: cell-based
Experimental: as §1

[11] = test system: Streptococcus pneumoniae P1; assay: broth micro-dilution MIC; assay type: cell-based
Experimental: (§2) The formula I compounds have in vitro and in vivo activity against Gram-positive pathogenic bacteria. The MIC's were determined using a standard broth micro-dilution assay.

Entercoccus faecium 2041 = assay: broth micro-dilution MIC; assay type: cell-based; conditions: Entercoccus faecium 2041
Experimental: as §2

[12] = test system: Staphylococcus epidermidis 270; assay: broth micro-dilution MIC; assay type: cell-based
Experimental: as §2

Entercoccus faecium 180 = assay: broth micro-dilution MIC; assay type: cell-based; conditions: Entercoccus faecium 180
Experimental: as §2

[13] = test system: Staphylococcus haemolyticus 415; assay: broth micro-dilution MIC; assay type: cell-based
Experimental: as §2

[14] = test system: Staphylococcus haemolyticus 105; assay: broth micro-dilution MIC; assay type: cell-based
Experimental: as §2

[15] = test system: Enterococcus gallinarum 245; assay: broth micro-dilution MIC; assay type: cell-based; conditions: Enterococcus gallinarum 245
Experimental: as §2

[16] = test system: vancomycin-susceptible enterococci; assay: broth micro-dilution, mean geometric MIC; assay type: cell-based, Enterococcus faecium and Enterococcus faecalis; conditions: enterococci, 24-hour incubation
[17] = test system: Staphylococcus aureus S13E; assay type: cell-based
Experimental: as §1

[18] = test system: Staphylococcus aureus SA1199B; assay type: cell-based
Experimental: as §1

[19] = test system: vancomycin-resistant enterococci; assay: broth micro-dilution, mean geometric MIC; assay type: cell-based, Enterococcus faecium and Enterococcus faecalis; conditions: enterococci, 24-hour incubation

Row | SMILES | MIC [1] [µg/mL] | MIC [2] [µg/mL] | MIC [3] [µg/mL] | MIC [4] [µg/mL] | MIC [5] [µg/mL] | MIC [6] [µg/mL] | MIC (Entercoccus faecium 276) [µg/mL] | MIC [7] [µg/mL] | MIC [8] [µg/mL] | MIC [9] [µg/mL] | MIC [10] [µg/mL] | MIC [11] [µg/mL] | MIC (Entercoccus faecium 2041) [µg/mL] | MIC [12] [µg/mL] | MIC (Entercoccus faecium 180) [µg/mL] | MIC [13] [µg/mL] | MIC [14] [µg/mL] | MIC [15] [µg/mL] | mean geometric MIC, Vancomycin Sensitive Strains [16] [µg/mL] | MIC [17] [µg/mL] | other results
1 | CCCCCCCCCCC#CCNC1(C)CC(OC2C(Oc3c4cc5cc3Oc3ccc(cc3Cl)C(OC3CC(C)(N)C(O)C(C)O3)C3NC(=O)C(NC(=O)C5NC(=O)C(CC(N)=O)NC(=O)C(NC(=O)C(CC(C)C)NC)C(O)c5ccc(c(Cl)c5)O4)c4ccc(O)c(c4)-c4c(O)cc(O)cc4C(C(=O)O)NC3=O)OC(CO)C(O)C2O)OC(C)C1O (stereo not shown) [Compound 191] | 2 (≈ 1.13 µM) | 1 (≈ 0.565 µM) | ≤ 0.06 | 0.25 (≈ 0.141 µM) | 2 (≈ 1.13 µM) | 1 (≈ 0.565 µM) | 4 (≈ 2.26 µM) | 2 (≈ 1.13 µM) | 0.5 (≈ 0.282 µM) | 2 (≈ 1.13 µM) | 2 (≈ 1.13 µM) | ≤ 0.06 | 1 (≈ 0.565 µM) | 2 (≈ 1.13 µM) | 4 (≈ 2.26 µM) | 8 (≈ 4.52 µM) | 2 (≈ 1.13 µM) | 8 (≈ 4.52 µM) | 0.57 | 2 (≈ 1.13 µM) | MIC [18]: 2 µg/mL (≈ 1.13 µM); mean geometric MIC, Vancomycin Resistant Strains [19]: 6.7 µg/mL
2 | CNC(CC(C)C)C(=O)NC1C(=O)NC(CC(N)=O)C(=O)NC2C(=O)NC3C(=O)NC(C(=O)NC(C(=O)O)c4cc(O)cc(O)c4-c4cc3ccc4O)C(OC3CC(C)(N)C(O)C(C)O3)c3ccc(c(Cl)c3)Oc3cc2cc(c3OC2OC(CO)C(O)C(O)C2OC2CC(C)(NCc3ccc(N=Nc4ccccc4)cc3)C(O)C(C)O2)Oc2ccc(cc2Cl)C1O (stereo not shown) [Compound 210] | 1 (≈ 0.56 µM) | ≤ 0.06 | ≤ 0.06 | ≤ 0.06 | 2 (≈ 1.12 µM) | ≤ 0.06 | ≤ 0.06 | 1 (≈ 0.56 µM) | ≤ 0.06 | 0.5 (≈ 0.28 µM) | 0.5 (≈ 0.28 µM) | ≤ 0.06 | ≤ 0.06 | 0.25 (≈ 0.14 µM) | ≤ 0.06 | 1 (≈ 0.56 µM) | 1 (≈ 0.56 µM) | 1 (≈ 0.56 µM) | 0.041 | ≤ 0.06 | MIC [18]: 0.125 µg/mL (≈ 0.07 µM); mean geometric MIC, Vancomycin Resistant Strains [19]: 0.84 µg/mL
3 | CNC(CC(C)C)C(=O)NC1C(=O)NC(CC(N)=O)C(=O)NC2C(=O)NC3C(=O)NC(C(=O)NC(C(=O)O)c4cc(O)cc(O)c4-c4cc3ccc4O)C(OC3CC(C)(N)C(O)C(C)O3)c3ccc(c(Cl)c3)Oc3cc2cc(c3OC2OC(CO)C(O)C(O)C2OC2CC(C)(NCc3cccnc3)C(O)C(C)O2)Oc2ccc(cc2Cl)C1O (stereo not shown) [Compound 24] | ≤ 0.06 | 0.5 (≈ 0.297 µM) | ≤ 0.06 | ≤ 0.06 | 0.5 (≈ 0.297 µM) | 0.25 (≈ 0.148 µM) | 0.25 (≈ 0.148 µM) | 0.125 (≈ 0.0742 µM) | ≤ 0.06 | 1 (≈ 0.594 µM) | 0.5 (≈ 0.297 µM) | ≤ 0.06 | ≤ 0.06 | 1 (≈ 0.594 µM) | 4 (≈ 2.38 µM) | ≤ 0.06 | 4 (≈ 2.38 µM) | 0.25 (≈ 0.148 µM) | 0.67 | ≤ 0.06 | MIC [18]: 2 µg/mL (≈ 1.19 µM); mean geometric MIC, Vancomycin Resistant Strains [19]: 54 µg/mL
4 | CNC(CC(C)C)C(=O)NC1C(=O)NC(CC(N)=O)C(=O)NC2C(=O)NC3C(=O)NC(C(=O)NC(C(=O)O)c4cc(O)cc(O)c4-c4cc3ccc4O)C(OC3CC(C)(N)C(O)C(C)O3)c3ccc(c(Cl)c3)Oc3cc2cc(c3OC2OC(CO)C(O)C(O)C2OC2CC(C)(NCc3ccc(OC)c(OCC4CCCCC4)c3)C(O)C(C)O2)Oc2ccc(cc2Cl)C1O (stereo not shown) [Compound 142] | 0.5 (≈ 0.274 µM) | 0.5 (≈ 0.274 µM) | ≤ 0.06 | ≤ 0.06 | 2 (≈ 1.1 µM) | 1 (≈ 0.548 µM) | 1 (≈ 0.548 µM) | 1 (≈ 0.548 µM) | ≤ 0.06 | 2 (≈ 1.1 µM) | 1 (≈ 0.548 µM) | ≤ 0.06 | ≤ 0.06 | 0.25 (≈ 0.137 µM) | 0.5 (≈ 0.274 µM) | 1 (≈ 0.548 µM) | 1 (≈ 0.548 µM) | 1 (≈ 0.548 µM) | 1.5 | 2 (≈ 1.1 µM) | MIC [18]: 2 µg/mL (≈ 1.1 µM); mean geometric MIC, Vancomycin Resistant Strains [19]: 45 µg/mL
5 | CNC(CC(C)C)C(=O)NC1C(=O)NC(CC(N)=O)C(=O)NC2C(=O)NC3C(=O)NC(C(=O)NC(C(=O)O)c4cc(O)cc(O)c4-c4cc3ccc4O)C(OC3CC(C)(N)C(O)C(C)O3)c3ccc(c(Cl)c3)Oc3cc2cc(c3OC2OC(CO)C(O)C(O)C2OC2CC(C)(NCc3ccc(OC(=O)c4ccccc4)cc3)C(O)C(C)O2)Oc2ccc(cc2Cl)C1O (stereo not shown) [Compound 150] | 0.5 (≈ 0.277 µM) | ≤ 0.06 | ≤ 0.06 | ≤ 0.06 | 1 (≈ 0.555 µM) | ≤ 0.06 | 1 (≈ 0.555 µM) | 2 (≈ 1.11 µM) | ≤ 0.06 | 0.5 (≈ 0.277 µM) | 1 (≈ 0.555 µM) | ≤ 0.06 | ≤ 0.06 | 0.25 (≈ 0.139 µM) | 0.25 (≈ 0.139 µM) | 2 (≈ 1.11 µM) | 1 (≈ 0.555 µM) | 2 (≈ 1.11 µM) | 0.25 | 0.25 (≈ 0.139 µM) | MIC [18]: 0.5 µg/mL (≈ 0.277 µM); mean geometric MIC, Vancomycin Resistant Strains [19]: 1.7 µg/mL
6 | CN[C@H](CC(C)C)C(=O)N[C@H]1C(=O)N[C@@H](CC(N)=O)C(=O)N[C@H]2C(=O)N[C@H]3C(=O)N[C@H](C(=O)N[C@H](C(=O)O)c4cc(O)cc(O)c4-c4cc3ccc4O)[C@H](O[C@H]3C[C@](C)(N)[C@@H](O)[C@H](C)O3)c3ccc(c(Cl)c3)Oc3cc2cc(c3O[C@@H]2O[C@H](CO)[C@@H](O)[C@H](O)[C@H]2O[C@H]2C[C@](C)(NCc3ccc(Oc4ccc(C)cc4)cc3)[C@@H](O)[C@H](C)O2)Oc2ccc(cc2Cl)[C@H]1O [Compound 95] | 2 (≈ 1.12 µM) | 1 (≈ 0.559 µM) | ≤ 0.06 | ≤ 0.06 | 0.5 (≈ 0.28 µM) | 1 (≈ 0.559 µM) | 0.125 (≈ 0.0699 µM) | 1 (≈ 0.559 µM) | ≤ 0.06 | 0.5 (≈ 0.28 µM) | 0.5 (≈ 0.28 µM) | ≤ 0.06 | ≤ 0.06 | 1 (≈ 0.559 µM) | 0.5 (≈ 0.28 µM) | 1 (≈ 0.559 µM) | 1 (≈ 0.559 µM) | 1 (≈ 0.559 µM) | 0.054 | 2 (≈ 1.12 µM) | MIC [18]: 1 µg/mL (≈ 0.559 µM); mean geometric MIC, Vancomycin Resistant Strains [19]: 1.7 µg/mL
7 | CCCOC(c1ccccc1)c1ccc(CNC2(C)CC(OC3C(Oc4c5cc6cc4Oc4ccc(cc4Cl)C(OC4CC(C)(N)C(O)C(C)O4)C4NC(=O)C(NC(=O)C6NC(=O)C(CC(N)=O)NC(=O)C(NC(=O)C(CC(C)C)NC)C(O)c6ccc(c(Cl)c6)O5)c5ccc(O)c(c5)-c5c(O)cc(O)cc5C(C(=O)O)NC4=O)OC(CO)C(O)C3O)OC(C)C2O)cc1 (stereo not shown) [Compound 128] | 1 (≈ 0.546 µM) | 2 (≈ 1.09 µM) | ≤ 0.06 | 0.125 (≈ 0.0683 µM) | 4 (≈ 2.18 µM) | 1 (≈ 0.546 µM) | 1 (≈ 0.546 µM) | 1 (≈ 0.546 µM) | 0.5 (≈ 0.273 µM) | 1 (≈ 0.546 µM) | 0.5 (≈ 0.273 µM) | ≤ 0.06 | 0.5 (≈ 0.273 µM) | 1 (≈ 0.546 µM) | 1 (≈ 0.546 µM) | 2 (≈ 1.09 µM) | 1 (≈ 0.546 µM) | 2 (≈ 1.09 µM) | 0.11 | 1 (≈ 0.546 µM) | MIC [18]: 2 µg/mL (≈ 1.09 µM); mean geometric MIC, Vancomycin Resistant Strains [19]: 2.0 µg/mL
